≈ marks a conversion by molar mass, not a printed value. Read-outs that look alike come from different tables or passages of the source.
Assays:
[1] = system: S. epidermidis ATCC 31432; assay: In vitro antibacterial evaluation, MIC by agar dilution, S. epidermidis ATCC 31432; type: cell-based; conditions: Staphylococcus epidermidis, ATCC31432
In short: (§1)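 Growth inhibition on Mueller-Hinton agar plates defined the MIC, the lowest compound level stopping visible growth after 16-20 hours at 35°-36° C. Compound was incorporated at two-fold steps from 128 μg/mL to ≤0.25 μg/mL, each tested twice, with about 10^4 cfu spotted per isolate.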

[2] = system: X. maltophilia ATCC 13637; assay: In vitro antibacterial evaluation, MIC by agar dilution, X. maltophilia ATCC 13637; type: cell-based; conditions: Stenotrophomonas maltophilia, ATCC13637
Procedure: (§2) The compounds of the invention were evaluated against several β-lactamresistant bacteria strains by determining the minimum inhibitory concentration (MIC, μg/ml) of each compound with respect to each strain. The MIC, the lowest concentration of antibiotic which inhibits growth of the test organism, was determined by the agar dilution method.
(§3) To determine the MIC for bacterial isolates, the test compound was incorporated in a series of two-fold dilutions into liquified Mueller-Hinton agar. Upon solidification, a number of different bacterial strains were spot inoculated with a replicating device onto the agar surface. […] The procedures used in these studies have been standardized by the National Committee for Clinical Laboratory Standards (NCCLS), as per the NCCLS publication entitled METHODS FOR DILUTION ANTIMICROBIAL SUSCEPTIBILITY TESTS (1991), which is incorporated herein by reference.
(§4) Aliquots of antimicrobial agents were prepared in phosphate buffered saline (PBS) at pH 7.2. Tween 20 or DMSO was used as a solubilizing vehicle as needed. Standard methods of vortexing, sonicating and gentle heat were used to facilitate solubilizing the test agent. Typically, the concentration of the stock solution was 10× that of the highest drug concentration tested. A 1.28 mg/mL stock solution was used with a subsequent highest working concentration of 128 μg/mL. Serial two-fold dilutions were done through ≤0.25 μg/mL. Each drug level was tested in duplicate. Two-fold drug dilutions were done in sterile 50 mL tubes with a final drug volume of 5 mL. Upon the addition of 45 mL of molten agar, a 10-fold dilution resulted. Two, 25 mL. plates were then poured into 15×150 mm square Petri plates with grids and allowed to harden.
(§5) A control plate with a reference drug, either cefotaxime, vancomycin or imipenem, was used as the positive growth control. Stock concentrations of reference antibiotics were prepared and frozen at -80° C. Upon preparation, the control plates were sealed and stored in the refrigerator for up to 1 week prior to use; however, imipenem control plates had to be prepared just prior to use. All test plates were used within 24 hours of preparation.
(§6) Satisfactory results were obtained where the inoculum contained about 10^4 colony forming units (cfu) ±0.5 logs. Starting with pure cultures of the test isolates on agar plates, a few isolated colonies were transferred to a tube of nutrient broth and allowed to grow 4-6 hours at 35°-36° C. to reach log-phase growth. Dropwise addition of the broth culture to PBS was done to match a 0.5 McFarland turbidity standard equal to 10^8 cfu/mL. This was further diluted ten-fold in PBS to reach a working inoculum concentration of 10^7 cfu/mL. When 1 μL of the working inoculum was applied to the agar surface a concentration of about 10^4 cfu per spot was obtained.
(§7) Disposable sterile 1 μL loops were used to inoculate test plates, with each isolate in a designated grid on the agar plate. An alternate method of inoculation involved the use of a replica plater, a device with 48 steel pins allowing the simultaneous inoculation of multiple isolates. After the spots had dried, the plates were incubated at 35°-36° C. for 16-20 hours. Endpoints were assessed as the minimum inhibitory concentration (MIC) of antimicrobial agent.

[3] = system: S. aureus ATCC 25923; assay: In vitro antibacterial evaluation, MIC by agar dilution, S. aureus ATCC 25923; type: cell-based; conditions: Staphylococcus aureus, ATCC25923
In short: as §1

[4] = system: E. coli ATCC 25922; assay: In vitro antibacterial evaluation, MIC by agar dilution, E. coli ATCC 25922; type: cell-based; conditions: Escherichia coli, ATCC25922, read-out: MIC
In short: as §1

[5] = system: S. aureus ATCC 29213; assay: In vitro antibacterial evaluation, MIC by agar dilution, S. aureus ATCC 29213; type: cell-based; conditions: Staphylococcus aureus, ATCC29213
In short: as §1

[6] = system: P. aeruginosa ATCC 27853; assay: In vitro antibacterial evaluation, MIC by agar dilution, P. aeruginosa ATCC 27853; type: cell-based; conditions: Pseudomonas aeruginosa, ATCC27853, read-out: MIC
In short: as §1

[7] = system: E. faecalis ATCC 29212; assay: In vitro antibacterial evaluation, MIC by agar dilution, E. faecalis ATCC 29212; type: cell-based; conditions: Enterococcus faecalis, ATCC29212; E. faecalis ATCC 29212; read-out: MIC
In short: as §1

[8] = system: S. aureus Col8A (Meth^S)(lac^-); assay: In vitro antibacterial evaluation, MIC by agar dilution, S. aureus Col8A; type: cell-based; conditions: Staphylococcus aureus
In short: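 Agar dilution per NCCLS (1991): two-fold dilutions from 128 μg/mL down to ≤0.25 μg/mL in Mueller-Hinton agar, each level in duplicate. Spots of about 10^4 cfu of log-phase culture; 16-20 h at 35°-36° C. MIC in μg/ml is the lowest concentration inhibiting growth.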

[9] = system: S. aureus 76 (Meth^R)(lac^+); assay: In vitro antibacterial evaluation, MIC by agar dilution, S. aureus 76; type: cell-based; conditions: Staphylococcus aureus, read-out: MIC
In short: as §1

[10] = system: S. haemolyticus (Meth^R); assay: In vitro antibacterial evaluation, MIC by agar dilution, S. haemolyticus; type: cell-based; conditions: Staphylococcus haemolyticus, read-out: MIC
In short: as §1

[11] = system: methicillinsusceptible S. aureus strain ATCC 13709; assay: Challenge strain MIC; type: cell-based; conditions: Staphylococcus aureus, ATCC13709, S. aureus ATCC 13709; read-out: Challenge str MIC
Procedure: as §2, §3, §4, §5, §6, §7
data reported for challenge with methicillinsusceptible S. aureus strain

[12] = system: E. faecium ATCC 35667; assay: In vitro antibacterial evaluation, MIC by agar dilution, E. faecium ATCC 35667; type: cell-based; conditions: Enterococcus faecium, ATCC35667, read-out: MIC
In short: as §1

[13] = system: methicillinsusceptible S. aureus strain ATCC 13709; assay: In vivo antibacterial evaluation, murine model for lethal bacteremic peritonitis; design: species or system S. aureus in female Swiss-Webster mice; conditions: Staphylococcus aureus, ATCC13709, sc, 72 h, two equal SC doses at challenge and 2 hours later, mice, probit, read-out: ED50
In short: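 Female Swiss-Webster mice received IP an LD100 bacterial titer in 7% hog gastric mucin, then two equal subcutaneous doses (at challenge and 2 h later) of two-fold increments of drug, range 0.01–512 mg/kg. Survival scored at 72 h; PD50 (total mg/kg) by probit, groups of 10.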

[14] = S. epidermidis ATCC 31432, read-out: MIC
[15] = S. aureus ATCC 25923, read-out: MIC
[16] = S. aureus ATCC 29213, read-out: MIC

SMILES	MIC [1] [µg/mL]	MIC [2] [µg/mL]	MIC [3] [µg/mL]	MIC [4] [µg/mL]	MIC [5] [µg/mL]	MIC [6] [µg/mL]	MIC [7] [µg/mL]	MIC [8] [µg/mL]	MIC [9] [µg/mL]	MIC [10] [µg/mL]	MIC [11] [µg/mL]	MIC [12] [µg/mL]	ED50 [13] [mg/kg]	MIC [1, 14] [µg/mL]	MIC [3, 15] [µg/mL]	MIC [5, 16] [µg/mL]
O=C(Cc1ccccc1)N[C@@H]1C(=O)N2C(C(=O)O)=C(Sc3ccc(-c4ccccc4)cc3)CS[C@H]12 [Cmpd 8, (7R)-7-[(Phenylacetyl)amino]-3-(4-biphenylthio)-3-cephem-4-carboxylic acid]	< 0.125	> 32	< 0.125	> 32	< 0.125	> 32	4 (≈ 7.96 µM)	< 0.125	> 32							
N#CCC(=O)N[C@@H]1C(=O)N2C(C(=O)O)=C(Sc3ccccc3I)CS[C@H]12 [Cmpd 17, (7R)-7-[(Cyanoacetyl)amino]-3-(o-iodophenylthio)-3-cephem-4-carboxylic acid]	< 0.25			> 64	< 0.25			< 0.25	4 (≈ 7.98 µM)	8 (≈ 16 µM)	0.125 (≈ 0.249 µM)	1 (≈ 1.99 µM)	3.41			
O=C(Cc1ccccc1)N[C@@H]1C(=O)N2C(C(=O)O)=C(Sc3ccccc3Br)CS[C@H]12 [Cmpd 4, (7R)-7-[(Phenylacetyl)amino]-3-(o-bromophenylthio)-3-cephem-4-carboxylic acid]		> 32		> 32		> 32	4 (≈ 7.91 µM)	< 0.06	4 (≈ 7.91 µM)	16 (≈ 31.7 µM)		2 (≈ 3.96 µM)		< 0.06	< 0.06	0.125 (≈ 0.247 µM)
N#CCC(=O)N[C@@H]1C(=O)N2C(C(=O)O)=C(Sc3ccnn3-c3ccccc3)CS[C@H]12 [Cmpd 88, (7R)-7-[(Cyanoacetyl)amino]-3-(1-N-phenylpyrazol-5-ylthio)-3-cephem-4-carboxylic acid]	< 0.25		< 0.25	> 32		> 32	4 (≈ 9.06 µM)	< 0.25	16 (≈ 36.2 µM)	16 (≈ 36.2 µM)	0.25 (≈ 0.566 µM)	2 (≈ 4.53 µM)	0.31			
Nc1nc(/C(=N/OC2CCCC2)C(=O)N[C@@H]2C(=O)N3C(C(=O)O)=C(Sc4ccnn4-c4ccccc4)CS[C@H]23)cs1 [Cmpd 89, (7R)-7-[(Z)-2-(aminothiazol-4-yl)-2-(cyclopentyloxyimino)acetamido]-3-(1-N-phenylpyrazol-5-ylthio)-3-cephem-4-carboxylic acid]				2 (≈ 3.27 µM)		8 (≈ 13.1 µM)	2 (≈ 3.27 µM)	0.5 (≈ 0.817 µM)	4 (≈ 6.54 µM)	8 (≈ 13.1 µM)	0.5 (≈ 0.817 µM)	4 (≈ 6.54 µM)	> 10	< 0.25	< 0.25	0.5 (≈ 0.817 µM)
O=C(Cc1ccccc1)N[C@@H]1C(=O)N2C(C(=O)O)=C(Sc3ccnn3-c3ccccc3)CS[C@H]12 [Cmpd 87, (7R)-7-[(Phenylacetyl)amino]-3-(1-N-phenylpyrazol-5-ylthio)-3-cephem-4-carboxylic acid]	< 0.25		< 0.25	> 32		> 32	2 (≈ 4.06 µM)	< 0.25	4 (≈ 8.12 µM)	16 (≈ 32.5 µM)	0.06 (≈ 0.122 µM)	1 to 2 (≈ 2.03 to 4.06 µM)	1.89			
N#Cc1ccccc1SC1=C(C(=O)O)N2C(=O)[C@@H](NC(=O)Cc3ccccc3)[C@H]2SC1 [Cmpd 41, (7R)-7-[(Phenylacetyl)amino]-3-(2-cyanophenylthio)-3-cephem-4-carboxylic acid]	< 0.25		< 0.25	> 32		> 32	4 (≈ 8.86 µM)	< 0.25	4 (≈ 8.86 µM)	16 (≈ 35.4 µM)	0.06 (≈ 0.133 µM)	2 (≈ 4.43 µM)	1.13			
O=C(Cc1ccccc1)N[C@@H]1C(=O)N2C(C(=O)O)=C(Sc3ccc(Br)cc3)CS[C@H]12 [Cmpd 5, (7R)-7-[(Phenylacetyl)amino]-3-(p-bromophenylthio)-3-cephem-4-carboxylic acid]		> 32		> 32		> 32	2 (≈ 3.96 µM)	0.03 (≈ 0.0594 µM)	16 (≈ 31.7 µM)	16 (≈ 31.7 µM)		4 (≈ 7.91 µM)		< 0.015	< 0.015	0.03 (≈ 0.0594 µM)
O=C(Cc1ccccc1)N[C@@H]1C(=O)N2C(C(=O)O)=C(Sc3cccnc3-c3ccccc3)CS[C@H]12 [Cmpd 81, (7R)-7-[(Phenylacetyl)amino]-3-(2-phenylpyridin-3-ylthio)-3-cephem-4-carboxylic acid]	< 0.25		< 0.25	> 32		> 32	2 (≈ 3.97 µM)	< 0.25	4 (≈ 7.94 µM)	16 (≈ 31.8 µM)	0.125 (≈ 0.248 µM)	1 (≈ 1.99 µM)	8.46			
O=C(Cc1ccccc1)N[C@@H]1C(=O)N2C(C(=O)O)=C(Sc3ccc(-c4ccccc4)cc3F)CS[C@H]12 [Cmpd 13, (7R)-7-[(Phenylacetyl)amino]-3-(2-fluoro-4-biphenylthio)-3-cephem-4-carboxylic acid]		> 32		> 32		> 32	2 (≈ 3.84 µM)	0.06 (≈ 0.115 µM)	16 (≈ 30.7 µM)	16 (≈ 30.7 µM)		4 (≈ 7.68 µM)		0.03 (≈ 0.0576 µM)	< 0.015	0.06 (≈ 0.115 µM)
O=C(Cc1ccccc1)N[C@@H]1C(=O)N2C(C(=O)O)=C(Sc3cccc(-c4ccccc4)c3)CS[C@H]12 [Cmpd 10, (7R)-7-[(Phenylacetyl)amino]-3-(3-biphenylthio)-3-cephem-4-carboxylic acid]		> 32		> 32	0.125 (≈ 0.249 µM)	> 32	2 (≈ 3.98 µM)	0.125 (≈ 0.249 µM)	32 (≈ 63.7 µM)					< 0.06	< 0.06	
O=C(Cc1ccccc1)N[C@@H]1C(=O)N2C(C(=O)O)=C(Sc3ccc4c(c3)oc3ccccc34)CS[C@H]12 [Cmpd 7, (7R)-7-[(Phenylacetyl)amino]-3-(dibenzofuranyl-3-thio)-3-cephem-4-carboxylic acid]		> 32		> 32		> 32	1 (≈ 1.94 µM)	0.06 (≈ 0.116 µM)	16 (≈ 31 µM)					< 0.06	< 0.06	< 0.06

Source: US5607926A, “Cephalosporin antibiotics” (Microcide Pharmaceuticals, Inc., priority 1995, dated 1997)
